The text below walks through data of patent US8889711B2, “Pyrazolopyridine derivatives as anticancer agent” (Pierre Fabre Medicament, priority 2009, dated 2014).

The IC50 is the concentration at which inhibition is half-maximal. Low readings indicate higher potency, high ones lower potency.

Molecules are shown by their SMILES. Where only a bound is given, the exact number is not on record here.

One test deals with karpas 299 cells. Nature of the test: Measurement of inhibition of cell proliferation (Karpas), ATPlite. It counts as cell-based. The settings on record: 72 hours. The protocol:
Measurement of Inhibition of Cell Proliferation (Karpas):
The antiproliferative activities of the compounds were measured using the ATPlite technique (Perkin Elmer).
The non-adhering cells (karpas 299) are seeded in 96-well plates (300 000 cells/ml) on Day 1 at a concentration compatible with logarithmic growth for 72 hours required for evaluation of the compounds. All the cells are treated on Day 1, then placed in an incubator at 37° C. under 5% CO2 atmosphere. Cell viability is evaluated on Day 4 by assay of released ATP, characteristic of viable cells. The IC50 values are determined by non-linear regression on the basis of a sigmoid model of dose/response relationship, Hill's slope coefficient being left variable, performed using GraphPad software sequence with the supplied algorithm.
With `Cc1n[nH]c2nc(-c3ccc(O)cc3F)c(C#N)c(-c3csc(C4CCNCC4)n3)c12` [Compound 165], the half-maximal inhibitory concentration (IC50) was 1000 to 10000 nM.
On the same count and under the same terms, in the case of `Cc1n[nH]c2nc(-c3ccc(O)cc3F)c(C#N)c(-c3ccc(N4CCC(N5CCN(C)CC5)CC4)o3)c12` [Compound 169] it was 100 to 1000 nM; in that of `Cc1n[nH]c2nc(-c3ccc(O)cc3F)c(C#N)c(-c3ccc(N4CCNCC4)cc3)c12` [Compound 182], 1000 to 10000 nM.

The test is the same for the next values; noted with them: Homo sapiens, KARPAS-299, 72 h.
`Cc1n[nH]c2nc(-c3ccc(O)cc3F)c(C#N)c(-c3ccc(N4CCC(O)CC4)o3)c12` [Compound 153] registered an IC50 of 1000 to 10000 nM.
Consider `Cc1n[nH]c2nc(-c3c(F)cc(O)cc3F)c(C#N)c(-c3ccc(N4CCNCC4)cc3)c12` [Compound 154], for which the IC50 is 100 to 1000 nM.
On the same count and under the same terms, in the case of `Cc1n[nH]c2nc(-c3c(F)cc(O)cc3F)c(C#N)c(-c3ccc(N4CC[C@@H](N)C4)o3)c12` [Compound 155] it was 1000 to 10000 nM; in that of `Cc1n[nH]c2nc(-c3ccc(O)cc3F)c(C#N)c(-c3ccc(N4CC[C@@H](O)C4)o3)c12` [Compound 156], 100 to 1000 nM.
Same read-out and setting: with `Cc1n[nH]c2nc(-c3ccc([N+](=O)[O-])cc3F)c(C#N)c(-c3ccc(N4CCNCC4)cc3)c12` [Compound 158] the figure was more than 10000 nM; with `Cc1n[nH]c2nc(-c3ccc(O)cc3F)c(C#N)c(-c3ccc(N4CCC(N(C)C)C4)o3)c12` (centres unmarked) [Compound 159], 100 to 1000 nM; with `Cc1n[nH]c2nc(-c3ccc(N)cc3F)c(C#N)c(-c3ccc(N4CCNCC4)cc3)c12` [Compound 160], more than 10000 nM.
Same read-out and setting: in the case of `Cc1n[nH]c2nc(-c3c(F)ccc(F)c3F)c(C#N)c(-c3ccc(N4CCNCC4)cc3)c12` [Compound 161] it was more than 10000 nM; in that of `Cc1n[nH]c2nc(-c3ccc(O)cc3F)c(C#N)c(-c3ccc(N4CCC(N5CCCC5)CC4)o3)c12` [Compound 162], 100 to 1000 nM.
For `Cc1n[nH]c2nc(-c3ccc(O)cc3F)c(C#N)c(-c3ccc(N4CCC(CN)C4)o3)c12` (centres unmarked) [Compound 163], the IC50 lay in the range of 1000 to 10000 nM.
The same measure, in the same setting: in the case of `N#Cc1c(-c2ccc(O)cc2F)nc2[nH]nc(N)c2c1-c1ccc(N2CC3CNCC3C2)o1` (centres unmarked) [Compound 164] it was more than 10000 nM; in that of `Cc1n[nH]c2nc(-c3ccc(O)cc3F)c(C#N)c(-c3cnc(N4CCN(C)CC4)s3)c12` [Compound 167], 1000 to 10000 nM; in that of `Cc1n[nH]c2nc(-c3ccc(O)cc3F)c(C#N)c(C(=O)NC3CCNCC3)c12` [Compound 168], more than 10000 nM.
Same read-out and setting: in the case of `Cc1n[nH]c2nc(-c3ccc(O)cc3F)c(C#N)c(-c3ccc(N4CCOCC4)o3)c12` [Compound 171] it was 100 to 1000 nM; in that of `Cc1n[nH]c2nc(-c3ccc(O)cc3F)c(C#N)c(-c3ccc(N4CCNCC4)o3)c12` [Compound 172], 1000 to 10000 nM.
Still for that read-out and setting: with `Cc1n[nH]c2nc(-c3ccc(O)c(Br)c3)c(C#N)c(-c3ccc(N4CCNCC4)cc3)c12` [Compound 175] the figure was 1000 to 10000 nM; with `Cc1cc(-c2nc3[nH]nc(C)c3c(-c3ccc(N4CCNCC4)cc3)c2C#N)ccc1O` [Compound 176], 100 to 1000 nM; with `COc1cc(-c2c(C#N)c(-c3ccc(O)cc3F)nc3[nH]nc(C)c23)ccc1OCCCN(C)C` [Compound 177], 1000 to 10000 nM.
`Cc1n[nH]c2nc(-c3ccc(O)cc3F)c(C#N)c(-c3ccc(OCCCN(C)C)cc3)c12` [Compound 178] gave an IC50 of 100 to 1000 nM.

The target of the next test is ALK kinase (Homo sapiens, UniProt Q9UM73). Nature of the test: Test to measure ALK kinase inhibition (GST-PLCγ1 substrate, anti-phosphotyrosine ELISA, luminescence). The settings on record: ALK kinase 180 ng/ml, 250 μM ATP, 30 minutes at 30° C. It counts as biochemical. The method, then: Test to Measure ALK Kinase Inhibition
ALK kinase, sequence (Q9UM73 19-1620): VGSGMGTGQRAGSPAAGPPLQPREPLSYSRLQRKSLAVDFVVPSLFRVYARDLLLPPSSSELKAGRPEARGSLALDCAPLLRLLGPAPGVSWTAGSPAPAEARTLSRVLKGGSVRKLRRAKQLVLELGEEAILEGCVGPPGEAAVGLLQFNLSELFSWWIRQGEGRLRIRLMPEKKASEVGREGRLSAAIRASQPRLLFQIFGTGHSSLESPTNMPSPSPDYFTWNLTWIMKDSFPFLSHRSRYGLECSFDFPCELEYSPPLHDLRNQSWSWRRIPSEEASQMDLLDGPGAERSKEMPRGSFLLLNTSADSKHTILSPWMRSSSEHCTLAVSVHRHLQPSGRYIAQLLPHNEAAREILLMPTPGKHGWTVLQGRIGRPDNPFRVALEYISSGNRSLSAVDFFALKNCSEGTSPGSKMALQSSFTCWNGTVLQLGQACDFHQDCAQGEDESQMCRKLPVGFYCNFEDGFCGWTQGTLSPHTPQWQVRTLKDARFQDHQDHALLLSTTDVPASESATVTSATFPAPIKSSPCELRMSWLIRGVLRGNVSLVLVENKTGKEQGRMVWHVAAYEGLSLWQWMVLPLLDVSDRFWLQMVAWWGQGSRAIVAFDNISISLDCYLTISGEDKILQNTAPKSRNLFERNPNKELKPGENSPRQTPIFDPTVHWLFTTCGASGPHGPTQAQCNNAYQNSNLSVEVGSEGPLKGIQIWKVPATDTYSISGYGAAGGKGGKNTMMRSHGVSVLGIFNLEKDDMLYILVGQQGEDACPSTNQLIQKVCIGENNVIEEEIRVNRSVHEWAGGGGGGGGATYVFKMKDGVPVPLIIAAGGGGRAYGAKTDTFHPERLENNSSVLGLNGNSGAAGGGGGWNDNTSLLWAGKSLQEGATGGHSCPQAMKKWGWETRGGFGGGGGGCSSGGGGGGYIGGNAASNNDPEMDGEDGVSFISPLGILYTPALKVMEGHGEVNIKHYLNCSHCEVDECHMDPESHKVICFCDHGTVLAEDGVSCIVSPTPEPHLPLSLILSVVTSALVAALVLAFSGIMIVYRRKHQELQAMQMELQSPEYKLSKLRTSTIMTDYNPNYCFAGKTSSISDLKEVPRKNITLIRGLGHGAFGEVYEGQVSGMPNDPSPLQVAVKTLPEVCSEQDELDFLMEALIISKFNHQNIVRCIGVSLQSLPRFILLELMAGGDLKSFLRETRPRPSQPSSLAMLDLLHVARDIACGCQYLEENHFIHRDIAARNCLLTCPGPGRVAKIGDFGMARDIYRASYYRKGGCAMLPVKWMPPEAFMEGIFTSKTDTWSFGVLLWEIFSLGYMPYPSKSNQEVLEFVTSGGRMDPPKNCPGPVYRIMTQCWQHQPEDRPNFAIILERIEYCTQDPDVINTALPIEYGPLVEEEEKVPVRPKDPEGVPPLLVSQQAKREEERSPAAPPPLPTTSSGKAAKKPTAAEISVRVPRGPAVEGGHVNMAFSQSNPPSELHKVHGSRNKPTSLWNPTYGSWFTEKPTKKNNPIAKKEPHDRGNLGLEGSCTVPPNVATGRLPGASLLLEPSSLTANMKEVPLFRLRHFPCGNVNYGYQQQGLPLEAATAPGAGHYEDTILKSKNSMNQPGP
A ViewPlate (Packard) is incubated with the GST-PLCγ1 substrate (purified recombinant form) at 0.1 mg/ml in phosphate buffer (PBS pH 7.4)(100 μl/well) for one hour under shaking. The plate is then saturated with a blocking solution containing 5% bovine serum albumin (BSA) (SIGMA) in PBS buffer pH 7.4.
After adding the inhibitor at the desired final concentration (usual range of 30 μM to 10 nM), the reaction is conducted by adding the ALK kinase at 180 ng/ml in 13 mM Tris reaction buffer pH 7.5 (SIGMA); 6.5 mM MgCl2 (MERCK); 0.65 mM DiThioThreitol (DTT) (ACROS); 39 mM sodium β-glycerophosphate (TCI); 0.65 mM sodium orthovanadate (SIGMA) and 250 μM ATP (SIGMA). Incubation is carried out for 30 minutes at 30° C. under shaking.
After three washings under shaking in 0.1% PBS/Tween-20 buffer (SIGMA), an anti-phosphotyrosine antibody coupled with HRP (UBI) diluted to 1/1000th in PBS/BSA buffer 5 mg/ml, is incubated for one hour under shaking. After three further washings in 0.1% PBS/Tween-20, the wells are incubated two minutes with 100 μl of SuperSignal ELISA mixture (PIERCE).
The signal is read in luminescent mode using a luminometer (MOLECULAR DEVICES SpectraMax M5e).
(In general: ELISA stands for enzyme-linked immunosorbent assay.)
`Cc1n[nH]c2nc(-c3ccc(O)cc3F)c(C#N)c(-c3ccc(N4CCC(O)CC4)o3)c12` [Compound 153] yielded an IC50 of less than 100 nM.
Same read-out and setting: with `Cc1n[nH]c2nc(-c3c(F)cc(O)cc3F)c(C#N)c(-c3ccc(N4CCNCC4)cc3)c12` [Compound 154] the figure was less than 100 nM; with `Cc1n[nH]c2nc(-c3c(F)cc(O)cc3F)c(C#N)c(-c3ccc(N4CC[C@@H](N)C4)o3)c12` [Compound 155], less than 100 nM.
In the case of `Cc1n[nH]c2nc(-c3ccc(O)cc3F)c(C#N)c(-c3ccc(N4CC[C@@H](O)C4)o3)c12` [Compound 156], the half-maximal inhibitory concentration (IC50) is less than 100 nM.
On the same count and under the same terms, with `Cc1n[nH]c2nc(-c3ccc([N+](=O)[O-])cc3F)c(C#N)c(-c3ccc(N4CCNCC4)cc3)c12` [Compound 158] the figure was 1000 to 10000 nM; with `Cc1n[nH]c2nc(-c3ccc(O)cc3F)c(C#N)c(-c3ccc(N4CCC(N(C)C)C4)o3)c12` (centres unmarked) [Compound 159], less than 100 nM.
On the same count and under the same terms, with `Cc1n[nH]c2nc(-c3ccc(N)cc3F)c(C#N)c(-c3ccc(N4CCNCC4)cc3)c12` [Compound 160] the figure was 1000 to 10000 nM; with `Cc1n[nH]c2nc(-c3c(F)ccc(F)c3F)c(C#N)c(-c3ccc(N4CCNCC4)cc3)c12` [Compound 161], 100 to 1000 nM.
The same measure, in the same setting: in the case of `Cc1n[nH]c2nc(-c3ccc(O)cc3F)c(C#N)c(-c3ccc(N4CCC(N5CCCC5)CC4)o3)c12` [Compound 162] it was less than 100 nM; in that of `Cc1n[nH]c2nc(-c3ccc(O)cc3F)c(C#N)c(-c3ccc(N4CCC(CN)C4)o3)c12` (centres unmarked) [Compound 163], less than 100 nM; in that of `N#Cc1c(-c2ccc(O)cc2F)nc2[nH]nc(N)c2c1-c1ccc(N2CC3CNCC3C2)o1` (centres unmarked) [Compound 164], 100 to 1000 nM.
The compound `Cc1n[nH]c2nc(-c3ccc(O)cc3F)c(C#N)c(-c3csc(C4CCNCC4)n3)c12` [Compound 165] showed a half-maximal inhibitory concentration (IC50) of 100 to 1000 nM.
Turning to `Cc1n[nH]c2nc(-c3ccc(O)cc3F)c(C#N)c(-c3cnc(N4CCN(C)CC4)s3)c12` [Compound 167], the IC50 was 100 to 1000 nM.
The same measure, in the same setting: with `Cc1n[nH]c2nc(-c3ccc(O)cc3F)c(C#N)c(C(=O)NC3CCNCC3)c12` [Compound 168] the figure was 1000 to 10000 nM; with `Cc1n[nH]c2nc(-c3ccc(O)cc3F)c(C#N)c(-c3ccc(N4CCC(N5CCN(C)CC5)CC4)o3)c12` [Compound 169], less than 100 nM; with `Cc1n[nH]c2nc(-c3ccc(O)cc3F)c(C#N)c(-c3ccc(N4CCOCC4)o3)c12` [Compound 171], 100 to 1000 nM.
The same measure, in the same setting: with `Cc1n[nH]c2nc(-c3ccc(O)cc3F)c(C#N)c(-c3ccc(N4CCNCC4)o3)c12` [Compound 172] the figure was 100 to 1000 nM.
On the same count and under the same terms, with `Cc1n[nH]c2nc(-c3ccc(O)c(Br)c3)c(C#N)c(-c3ccc(N4CCNCC4)cc3)c12` [Compound 175] the figure was 100 to 1000 nM.
With `Cc1cc(-c2nc3[nH]nc(C)c3c(-c3ccc(N4CCNCC4)cc3)c2C#N)ccc1O` [Compound 176], the half-maximal inhibitory concentration (IC50) lay within 100 to 1000 nM.
`COc1cc(-c2c(C#N)c(-c3ccc(O)cc3F)nc3[nH]nc(C)c23)ccc1OCCCN(C)C` [Compound 177] displayed an IC50 of 100 to 1000 nM.
Same read-out and setting: in the case of `Cc1n[nH]c2nc(-c3ccc(O)cc3F)c(C#N)c(-c3ccc(OCCCN(C)C)cc3)c12` [Compound 178] it was less than 100 nM; in that of `Cc1n[nH]c2nc(-c3ccc(O)cc3F)c(C#N)c(-c3ccc(N4CCNCC4)cc3)c12` [Compound 182], less than 100 nM.
